# Reference: US9670194B2 (Calitor Sciences, LLC, priority 2013, dated 2017)
# Like-named read-outs stand apart in the source and are kept apart here.
# What was measured:
# PI3K (p120γ) (h) = PI3K (p120γ) (h) (Homo sapiens (Human), UniProt P48736); assay: PI3K (p120γ) (h) non-radioactive HTRF kinase assay; assay type: biochemical
# [1] = Pharmacokinetics after intravenous and oral administration in rats; assay type: in vivo, rat; conditions: for clearance (CL) / AUC(0-t) / half-life / Vd: iv dosing; for bioavailability / AUC(0-t) / half-life / Vd: rat, plasma; for bioavailability: oral dose generally 5 or 10 mg/kg; for Vd: read-out: Vss
# PI3K (p110δ/p85α) (h) = PI3K (p110δ/p85α) (h) (Homo sapiens (Human), UniProt O00329); assay: PI3K (p110δ/p85α) (h) non-radioactive HTRF kinase assay; assay type: biochemical
# [2] = Compound stability in rat liver microsomes; assay type: in vitro ADME; conditions: pH 7.4; for half-life at 5 μM: rat liver microsomes 0.5 mg protein/mL, compound 5 μM, NADPH 1.0 mM, 37° C.; for CLint scaled at 5 μM: rat liver microsomes, in vivo CLint extrapolated
# [3] = Compound stability in human liver microsomes; assay type: in vitro ADME; conditions: for half-life at 5 μM: human liver microsomes 0.5 mg protein/mL, compound 5 μM, NADPH 1.0 mM, 37° C.; for CLint scaled at 5 μM: human liver microsomes, in vivo CLint extrapolated
# PI3K (p110β/p85α) (h) = PI3K (p110β/p85α) (h) (Homo sapiens (Human), UniProt P42338); assay: PI3K (p110β/p85α) (h) non-radioactive HTRF kinase assay; assay type: biochemical
# PI3K (p110α/p85α) (h) = PI3K (p110α/p85α) (h) (Homo sapiens (Human), UniProt P42336); assay: PI3K (p110α/p85α) (h) non-radioactive HTRF kinase assay; assay type: biochemical
# Sequence of PI3K (p110α/p85α) (h) (P42336 whole entry): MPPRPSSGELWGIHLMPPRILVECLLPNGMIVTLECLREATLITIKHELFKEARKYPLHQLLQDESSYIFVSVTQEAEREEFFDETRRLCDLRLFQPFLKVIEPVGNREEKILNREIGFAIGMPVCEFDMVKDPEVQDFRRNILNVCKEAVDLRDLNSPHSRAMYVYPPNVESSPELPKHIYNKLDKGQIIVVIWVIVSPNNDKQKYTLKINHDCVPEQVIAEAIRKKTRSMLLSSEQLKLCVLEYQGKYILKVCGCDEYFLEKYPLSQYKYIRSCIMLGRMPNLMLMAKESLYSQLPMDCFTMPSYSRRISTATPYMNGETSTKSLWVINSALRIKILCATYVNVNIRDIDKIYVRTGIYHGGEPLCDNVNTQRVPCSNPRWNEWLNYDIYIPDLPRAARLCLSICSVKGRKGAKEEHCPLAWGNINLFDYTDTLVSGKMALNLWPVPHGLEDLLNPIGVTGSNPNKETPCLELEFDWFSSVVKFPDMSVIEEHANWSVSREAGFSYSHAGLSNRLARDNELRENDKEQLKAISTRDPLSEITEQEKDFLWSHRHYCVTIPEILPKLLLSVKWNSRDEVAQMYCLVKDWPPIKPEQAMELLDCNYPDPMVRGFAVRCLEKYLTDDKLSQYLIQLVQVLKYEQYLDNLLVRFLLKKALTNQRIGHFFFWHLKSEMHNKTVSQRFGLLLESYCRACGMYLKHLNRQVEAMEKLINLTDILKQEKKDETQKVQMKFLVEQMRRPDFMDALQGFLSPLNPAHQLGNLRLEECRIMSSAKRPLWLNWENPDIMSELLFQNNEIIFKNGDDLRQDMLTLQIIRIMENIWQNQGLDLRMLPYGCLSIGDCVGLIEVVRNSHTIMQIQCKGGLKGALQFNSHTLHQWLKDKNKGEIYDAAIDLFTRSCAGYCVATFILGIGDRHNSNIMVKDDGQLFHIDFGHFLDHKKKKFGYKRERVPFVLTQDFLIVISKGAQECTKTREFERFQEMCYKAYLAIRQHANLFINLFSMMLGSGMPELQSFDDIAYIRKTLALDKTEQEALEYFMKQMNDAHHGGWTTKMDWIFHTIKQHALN
# Sequence of PI3K (p110α/p85α) (h) (P27986 whole entry partner): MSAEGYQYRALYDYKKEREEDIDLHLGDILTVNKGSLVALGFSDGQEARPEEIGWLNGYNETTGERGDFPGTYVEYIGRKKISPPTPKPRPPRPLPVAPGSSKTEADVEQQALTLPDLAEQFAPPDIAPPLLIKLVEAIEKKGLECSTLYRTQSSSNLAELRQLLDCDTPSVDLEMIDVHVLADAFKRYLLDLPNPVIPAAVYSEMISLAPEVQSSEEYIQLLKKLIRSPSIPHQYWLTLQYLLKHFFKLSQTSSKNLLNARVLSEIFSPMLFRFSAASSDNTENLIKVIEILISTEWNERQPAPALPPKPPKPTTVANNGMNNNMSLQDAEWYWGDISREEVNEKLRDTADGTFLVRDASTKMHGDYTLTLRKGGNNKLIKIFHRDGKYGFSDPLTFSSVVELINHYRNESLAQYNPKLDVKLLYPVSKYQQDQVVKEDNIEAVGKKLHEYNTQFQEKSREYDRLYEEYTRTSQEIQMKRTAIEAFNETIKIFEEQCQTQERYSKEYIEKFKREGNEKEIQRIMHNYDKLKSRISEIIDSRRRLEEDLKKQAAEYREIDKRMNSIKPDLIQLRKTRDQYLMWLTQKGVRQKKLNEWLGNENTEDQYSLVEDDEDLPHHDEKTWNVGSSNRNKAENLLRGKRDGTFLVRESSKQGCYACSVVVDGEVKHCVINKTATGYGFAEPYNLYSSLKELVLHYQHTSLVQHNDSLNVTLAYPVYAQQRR
# Sequence of PI3K (p110β/p85α) (h) (P42338 whole entry): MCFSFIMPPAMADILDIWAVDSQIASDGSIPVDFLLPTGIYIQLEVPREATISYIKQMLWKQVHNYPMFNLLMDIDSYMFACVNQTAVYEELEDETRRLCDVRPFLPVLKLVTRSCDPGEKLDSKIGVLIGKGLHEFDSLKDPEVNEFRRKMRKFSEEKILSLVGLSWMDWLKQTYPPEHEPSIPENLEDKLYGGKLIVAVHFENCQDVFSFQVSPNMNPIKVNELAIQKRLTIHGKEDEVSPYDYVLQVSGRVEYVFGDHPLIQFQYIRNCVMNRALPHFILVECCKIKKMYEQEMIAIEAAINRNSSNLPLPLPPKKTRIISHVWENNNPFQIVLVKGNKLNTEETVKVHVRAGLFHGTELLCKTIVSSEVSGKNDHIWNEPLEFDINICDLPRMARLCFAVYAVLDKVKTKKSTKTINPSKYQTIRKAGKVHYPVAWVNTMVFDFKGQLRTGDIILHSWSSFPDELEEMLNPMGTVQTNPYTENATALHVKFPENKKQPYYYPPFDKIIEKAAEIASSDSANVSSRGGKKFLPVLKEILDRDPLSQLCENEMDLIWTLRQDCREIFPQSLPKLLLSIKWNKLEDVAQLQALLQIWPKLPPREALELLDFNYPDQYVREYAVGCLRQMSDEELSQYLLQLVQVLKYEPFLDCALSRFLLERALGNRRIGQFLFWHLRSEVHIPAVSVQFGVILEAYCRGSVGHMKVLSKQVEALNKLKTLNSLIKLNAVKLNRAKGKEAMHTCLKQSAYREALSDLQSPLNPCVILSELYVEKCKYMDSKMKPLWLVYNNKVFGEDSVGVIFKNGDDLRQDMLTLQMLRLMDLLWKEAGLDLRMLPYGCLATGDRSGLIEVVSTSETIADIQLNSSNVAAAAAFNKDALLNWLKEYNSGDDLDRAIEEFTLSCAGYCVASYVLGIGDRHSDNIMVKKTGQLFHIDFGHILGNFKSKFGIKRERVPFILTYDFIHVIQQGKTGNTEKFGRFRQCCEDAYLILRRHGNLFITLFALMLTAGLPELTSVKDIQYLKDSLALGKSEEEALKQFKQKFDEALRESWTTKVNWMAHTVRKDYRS
# Sequence of PI3K (p110β/p85α) (h) (P27986 whole entry partner): as the sequence (P27986 whole entry partner) above
# Sequence of PI3K (p110δ/p85α) (h) (O00329 whole entry): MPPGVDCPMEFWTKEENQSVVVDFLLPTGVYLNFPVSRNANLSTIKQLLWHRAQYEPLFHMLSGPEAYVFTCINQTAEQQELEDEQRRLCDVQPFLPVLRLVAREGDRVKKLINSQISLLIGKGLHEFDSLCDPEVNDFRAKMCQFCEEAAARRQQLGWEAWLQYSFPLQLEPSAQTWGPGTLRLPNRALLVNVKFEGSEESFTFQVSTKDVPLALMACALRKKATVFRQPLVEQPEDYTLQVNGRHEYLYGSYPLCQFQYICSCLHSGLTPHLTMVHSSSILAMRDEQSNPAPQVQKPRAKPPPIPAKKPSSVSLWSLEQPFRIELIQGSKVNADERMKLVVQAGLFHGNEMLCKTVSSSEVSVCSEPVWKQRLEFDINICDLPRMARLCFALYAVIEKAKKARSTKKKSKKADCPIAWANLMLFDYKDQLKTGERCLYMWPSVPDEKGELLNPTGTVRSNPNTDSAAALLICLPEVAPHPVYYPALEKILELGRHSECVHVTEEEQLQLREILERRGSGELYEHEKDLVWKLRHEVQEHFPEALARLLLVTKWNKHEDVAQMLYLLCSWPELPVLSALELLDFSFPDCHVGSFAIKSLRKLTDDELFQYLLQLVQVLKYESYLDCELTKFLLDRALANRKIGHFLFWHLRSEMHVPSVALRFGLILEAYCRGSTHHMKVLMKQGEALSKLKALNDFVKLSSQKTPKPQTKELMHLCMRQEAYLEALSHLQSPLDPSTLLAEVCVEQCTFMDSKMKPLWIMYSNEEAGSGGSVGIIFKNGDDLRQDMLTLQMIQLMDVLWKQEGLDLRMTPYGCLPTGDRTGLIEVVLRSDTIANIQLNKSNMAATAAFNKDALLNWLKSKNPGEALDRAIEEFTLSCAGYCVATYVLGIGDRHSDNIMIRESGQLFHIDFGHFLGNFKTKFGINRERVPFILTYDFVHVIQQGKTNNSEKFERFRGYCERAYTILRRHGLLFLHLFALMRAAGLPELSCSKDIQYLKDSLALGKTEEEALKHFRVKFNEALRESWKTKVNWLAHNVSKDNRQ
# Sequence of PI3K (p110δ/p85α) (h) (P27986 whole entry partner): as the sequence (P27986 whole entry partner) above
# Sequence of PI3K (p120γ) (h) (P48736 whole entry): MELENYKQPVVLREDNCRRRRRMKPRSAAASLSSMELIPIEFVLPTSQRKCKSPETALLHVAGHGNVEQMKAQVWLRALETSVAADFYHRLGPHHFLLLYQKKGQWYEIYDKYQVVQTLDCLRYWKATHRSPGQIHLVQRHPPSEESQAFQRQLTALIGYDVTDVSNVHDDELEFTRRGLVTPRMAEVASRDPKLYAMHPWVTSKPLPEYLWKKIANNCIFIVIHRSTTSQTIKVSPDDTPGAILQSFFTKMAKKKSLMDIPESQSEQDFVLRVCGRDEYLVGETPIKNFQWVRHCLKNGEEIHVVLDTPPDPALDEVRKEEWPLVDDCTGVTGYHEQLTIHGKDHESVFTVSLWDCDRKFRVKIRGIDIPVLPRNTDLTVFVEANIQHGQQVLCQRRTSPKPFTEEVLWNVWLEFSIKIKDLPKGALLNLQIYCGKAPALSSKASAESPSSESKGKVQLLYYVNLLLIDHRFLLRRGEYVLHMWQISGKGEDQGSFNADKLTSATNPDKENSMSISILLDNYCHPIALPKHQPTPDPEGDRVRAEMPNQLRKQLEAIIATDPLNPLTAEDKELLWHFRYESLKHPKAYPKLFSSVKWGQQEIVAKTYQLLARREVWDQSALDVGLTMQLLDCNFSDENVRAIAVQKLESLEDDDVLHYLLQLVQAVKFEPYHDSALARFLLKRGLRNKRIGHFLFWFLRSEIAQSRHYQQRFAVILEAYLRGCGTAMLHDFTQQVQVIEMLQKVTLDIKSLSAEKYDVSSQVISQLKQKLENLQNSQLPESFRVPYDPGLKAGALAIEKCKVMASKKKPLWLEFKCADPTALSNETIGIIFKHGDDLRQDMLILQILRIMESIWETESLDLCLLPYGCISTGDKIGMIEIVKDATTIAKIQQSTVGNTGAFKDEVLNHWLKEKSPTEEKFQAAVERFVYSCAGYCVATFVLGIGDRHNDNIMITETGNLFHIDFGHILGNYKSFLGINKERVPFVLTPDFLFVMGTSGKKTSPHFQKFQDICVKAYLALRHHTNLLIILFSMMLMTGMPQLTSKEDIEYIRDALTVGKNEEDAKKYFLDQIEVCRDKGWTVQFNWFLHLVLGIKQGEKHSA
Structure (SMILES),IC50 (PI3K (p120γ) (h)),clearance (CL) ([1]; dose 0.5 mg/kg),bioavailability ([1]; iv dose 0.5 mg/kg),AUC(0-t) ([1]; dose 0.5 mg/kg),half-life ([1]; dose 0.5 mg/kg),Vd ([1]; dose 0.5 mg/kg),IC50 (PI3K (p110δ/p85α) (h)),half-life at 5 μM [2],CLint scaled at 5 μM [2],half-life at 5 μM [3],CLint scaled at 5 μM [3],clearance (CL) ([1]; dose 1 mg/kg),bioavailability ([1]; iv dose 1 mg/kg),AUC(0-t) ([1]; dose 1 mg/kg),half-life ([1]; dose 1 mg/kg),Vd ([1]; dose 1 mg/kg),IC50 (PI3K (p110β/p85α) (h)),IC50 (PI3K (p110α/p85α) (h))
"CC[C@H](Nc1ncnc(N)c1-c1nnc(C)o1)c1nc2cccc(Cl)c2c(=O)n1-c1ccccc1 [Ex. 1, (S)-2-(1-((6-amino-5-(5-methyl-1,3,4-oxadiazol-2-yl)pyrimidin-4-yl)amino)-propyl)-5-chloro-3-phenylquinazolin-4(3H)-one]",384 nM,47.3 mL/min/kg,32.3%,355 ng·h/mL,46.8 min,3.68 L/kg,3 nM,17.5 min,142 mL/min/kg,53.5 min,32.5 mL/min/kg,,,,,,,
"CC[C@H](Nc1ncnc(N)c1-c1nnc(C)o1)c1nc2cccc(Cl)c2c(=O)n1C1CC1 [Ex. 2, (S)-2-(1-((6-amino-5-(5-methyl-1,3,4-oxadiazol-2-yl)pyrimidin-4-yl)amino)-propyl)-5-chloro-3-cyclopropylquinazolin-4(3H)-one]",1930 nM,,,,,,33 nM,31.4 min,79.1 mL/min/kg,32.1 min,54.1 mL/min/kg,41.2 mL/min/kg,63.9%,405 ng·h/mL,75.6 min,3.93 L/kg,168 nM,> 3000 nM
"CC[C@H](Nc1ncnc(N)c1-c1nc(C)no1)c1nc2cccc(Cl)c2c(=O)n1-c1ccccc1 [Ex. 3, (S)-2-(1-((6-amino-5-(3-methyl-1,2,4-oxadiazol-5-yl)pyrimidin-4-yl)amino)-propyl)5-chloro-3-phenylquinazolin-4(3H)-one]",66 nM,,,,,,2 nM,31 min,80.2 mL/min/kg,36.7 min,47.4 mL/min/kg,70.8 mL/min/kg,64.5%,237 ng·h/mL,71.4 min,6.23 L/kg,142 nM,442 nM
"CC[C@H](Nc1ncnc(N)c1C1=N[C@@H](C)CO1)c1nc2cccc(Cl)c2c(=O)n1-c1ccccc1 [Ex. 6, 2-((S)-1((6-amino-5-((S)-4-methyl-4,5-dihydrooxazol-2-yl)pyrimidin-4-yl)amino)propyl)-5-chloro-3-phenylquinazolin-4(3H)-one]",,,,,,,99 nM,3.44 min,722 mL/min/kg,3.11 min,560 mL/min/kg,110 mL/min/kg,5.56%,151 ng·h/mL,69 min,6.75 L/kg,> 3000 nM,
"CC[C@H](Nc1ncnc(N)c1-c1ncc(C)o1)c1nc2cccc(Cl)c2c(=O)n1C1CC1 [Ex. 7, (S)-2-(1-((6-amino-5-(5-methyloxazol-2-yl)pyrimidin-4-yl)amino)propyl)-5-chloro-3-cyclopropylquinazolin-4(3H)-one]",,,,,,,246 nM,10.5 min,237 mL/min/kg,19.4 min,89.7 mL/min/kg,54.8 mL/min/kg,45.7%,300 ng·h/mL,79.8 min,5.82 L/kg,2780 nM,
"CC[C@H](Nc1ncnc(N)c1-c1ncnn1C)c1nc2cccc(Cl)c2c(=O)n1-c1ccccc1 [Ex. 10, 2-((1S)-1-((6-amino-5-(1-methyl-1H-1,2,4-triazol-5-yl)pyrimidin-4-yl)amino)propyl)-5-chloro-3-phenylquinazolin-4(3H)-one]",,3.5 mL/min/kg,40.2%,2420 ng·h/mL,72 min,0.3 L/kg,2510 nM,70.1 min,35.4 mL/min/kg,92 min,18.9 mL/min/kg,,,,,,> 3000 nM,
"CC[C@H](Nc1ncnc(N)c1-c1ccccn1)c1nc2cccc(Cl)c2c(=O)n1C1CC1 [Ex. 11, (S)-2-(1-((6-amino-5-(pyridin-2-yl)pyrimidin-4-yl)amino)propyl)-5-chloro-3-cyclopropylquinazolin-4(3H)-one]",,4.83 mL/min/kg,38.5%,1690 ng·h/mL,157 min,0.59 L/kg,1470 nM,62.2 min,39.9 mL/min/kg,78.2 min,22.2 mL/min/kg,,,,,,> 3000 nM,
"CC[C@H](Nc1ncnc(N)c1-c1nnc(C)o1)c1nc2cccc(Cl)c2c(=O)n1-c1cccc(F)c1 [Ex. 34, (S)-2-(1-((6-amino-5-(5-methyl-1,3,4-oxadiazol-2-yl)pyrimidin-4-yl)amino)-propyl)-5-chloro-3-(3-fluorophenyl)quinazolin-4(3H)-one]",> 3000 nM,,,,,,12 nM,8.94 min,278 mL/min/kg,29.8 min,58.3 mL/min/kg,,,,,,1360 nM,> 3000 nM
"CC[C@H](Nc1ncnc(N)c1-c1nc(C)no1)c1nc2cccc(F)c2c(=O)n1-c1ccccc1 [Ex. 39, (S)-2-(1-((6-amino-5-(3-methyl-1,2,4-oxadiazol-5-yl)pyrimidin-4-yl)amino)-propyl)-5-fluoro-3-phenylquinazolin-4(3H)-one]",893 nM,,,,,,11 nM,15.6 min,159 mL/min/kg,69.3 min,25.1 mL/min/kg,51.8 mL/min/kg,75.5%,323 ng·h/mL,57 min,4.09 L/kg,502 nM,2750 nM
"Cc1noc(-c2c(N)ncnc2N[C@@H](C)c2nc3cccc(Cl)c3c(=O)n2C2CC2)n1 [Ex. 41, (S)-2-(1-((6-amino-5-(3-methyl-1,2,4-oxadiazol-5-yl)pyrimidin-4-yl)amino)-ethyl)-5-chloro-3-cyclopropylquinazolin-4(3H)-one]",261 nM,,,,,,5 nM,22.4 min,111 mL/min/kg,41 min,42.4 mL/min/kg,84.3 mL/min/kg,46.5%,200 ng·h/mL,65.4 min,6.68 L/kg,35 nM,1200 nM
"CCc1nc(-c2c(N)ncnc2N[C@@H](C)c2nc3cccc(Cl)c3c(=O)n2C2CC2)no1 [Ex. 61, (S)-2-(1-((6-amino-5-(5-ethyl-1,2,4-oxadiazol-3-yl)pyrimidin-4-yl)amino)ethyl)-5-chloro-3-cyclopropylquinazolin-4(3H)-one]",,,,,,,44 nM,3.29 min,755 mL/min/kg,6.07 min,286 mL/min/kg,97.5 mL/min/kg,,169 ng·h/mL,60 min,7.07 L/kg,,
"CC[C@H](Nc1ncnc(N)c1-c1nc(C)no1)c1nc2cccc(Cl)c2c(=O)n1[C@@H]1C[C@@H]1F [Ex. 62, 2-((S)-1-((6-amino-5-(3-methyl-1,2,4-oxadiazol-5-yl)pyrimidin-4-yl)amino)propyl)-5-chloro-3-((1R,2S)-2-fluorocyclopropyl)quinazolin-4(3H)-one]",,,,,,,37 nM,46.2 min,53.7 mL/min/kg,50.4 min,34.5 mL/min/kg,71.8 mL/min/kg,27.7%,238 ng·h/mL,81 min,6.11 L/kg,,
"Cc1noc(-c2c(N)ncnc2N[C@@H](C)c2nc3cccc(F)c3c(=O)n2-c2ccccc2)n1 [Ex. 63, (S)-2-(1-((6-amino-5-(3-methyl-1,2,4-oxadiazol-5-yl)pyrimidin-4-yl)amino)ethyl)-5-fluoro-3-phenylquinazolin-4(3H)-one]",269 nM,,,,,,18 nM,17.9 min,139 mL/min/kg,47.9 min,36.3 mL/min/kg,,,,,,1320 nM,> 3000 nM
